According to US20230134760A1, “CAR AND NRF2 DUAL ACTIVATOR AGENTS FOR CYCLOPHOSPHAMIDE-BASED AND DOXORUBICIN-BASED TREATMENTS OF CANCER” (priority 2020, published 2023):

Tested on: BT549 cells
Assay: HPH/BT549 co-culture, CPA cytotoxicity (CCK8)
Type: cell-based
Details: HPH/BT549 coculture, DL7076 10 μM + CPA
Method: HPH were cultured in collagen-coated 24 well plates and pre-treated with vehicle control (0.1% DMSO), CITCO (1 μM) or DL7076 (5 μM or 10 μM) for 24 h. […] Following the 24 h pre-treatment, coverslips were combined in hepatocyte seeded wells and exposed to designated concentrations of cyclophosphamide in the presence or absence of DL7076 for various time intervals, as indicated.
H9c2 cells were seeded 0.8×10^5 in 24-well plates. Following cell attachment, a 2 h pre-treatment with vehicle control (0.1% DMSO), SFN (2.5 μM) or DL7076 (1 μM, 5 μM, or 10 μM) was done followed by doxorubicin (2.5 μM) exposure for 22 h. Co-culture cells were assembled and treated with cyclophosphamide and doxorubicin as indicated. A Cell Counting Kit-8 (Enzo) assay was carried out. Cell viability was described as a percent of vehicle control (0.1% DMSO). Cardiomyocyte, human iPSC-derived cardiomyocytes, and BT549 viability was determined with a 1 hr incubation of 6% CCK8 in WEM.

O=C(NCCN=C=S)c1c(-c2ccc3ccccc3c2)nc2sccn12 [DL7076, N-(2-Isothiocyanatoethyl)-6-(naphthalen-2-yl)imidazo[2,1-b]thiazole-5-carboxamide]
CPA cytotoxicity in BT549 cells with cotreatment: significantly enhanced the cytotoxicity of CPA
